Laboratory results taken from patent US11541050B2, “Pyrimidine derivatives for the treatment of viral infections” (JANSSEN SCIENCES IRELAND UC, priority 2011, dated 2023).

Assays:
[1] = target: T1, human TLR7 (wild type sequence) (Homo sapiens, UniProt Q9NYK1); assay: TLR7 cellular NFκB-luc reporter assay, wild type TLR7; assay type: cell-based; design: unit not given here; settings: lowest effective concentration; for TLR7-wt_LEC: wild type TLR7; for TLR 7 wt LEC: wild type TLR7 (compounds 74 onward)
T1 construct: expressed in transfected cells; host or cells: HEK293
T1 sequence (Q9NYK1 27-1049): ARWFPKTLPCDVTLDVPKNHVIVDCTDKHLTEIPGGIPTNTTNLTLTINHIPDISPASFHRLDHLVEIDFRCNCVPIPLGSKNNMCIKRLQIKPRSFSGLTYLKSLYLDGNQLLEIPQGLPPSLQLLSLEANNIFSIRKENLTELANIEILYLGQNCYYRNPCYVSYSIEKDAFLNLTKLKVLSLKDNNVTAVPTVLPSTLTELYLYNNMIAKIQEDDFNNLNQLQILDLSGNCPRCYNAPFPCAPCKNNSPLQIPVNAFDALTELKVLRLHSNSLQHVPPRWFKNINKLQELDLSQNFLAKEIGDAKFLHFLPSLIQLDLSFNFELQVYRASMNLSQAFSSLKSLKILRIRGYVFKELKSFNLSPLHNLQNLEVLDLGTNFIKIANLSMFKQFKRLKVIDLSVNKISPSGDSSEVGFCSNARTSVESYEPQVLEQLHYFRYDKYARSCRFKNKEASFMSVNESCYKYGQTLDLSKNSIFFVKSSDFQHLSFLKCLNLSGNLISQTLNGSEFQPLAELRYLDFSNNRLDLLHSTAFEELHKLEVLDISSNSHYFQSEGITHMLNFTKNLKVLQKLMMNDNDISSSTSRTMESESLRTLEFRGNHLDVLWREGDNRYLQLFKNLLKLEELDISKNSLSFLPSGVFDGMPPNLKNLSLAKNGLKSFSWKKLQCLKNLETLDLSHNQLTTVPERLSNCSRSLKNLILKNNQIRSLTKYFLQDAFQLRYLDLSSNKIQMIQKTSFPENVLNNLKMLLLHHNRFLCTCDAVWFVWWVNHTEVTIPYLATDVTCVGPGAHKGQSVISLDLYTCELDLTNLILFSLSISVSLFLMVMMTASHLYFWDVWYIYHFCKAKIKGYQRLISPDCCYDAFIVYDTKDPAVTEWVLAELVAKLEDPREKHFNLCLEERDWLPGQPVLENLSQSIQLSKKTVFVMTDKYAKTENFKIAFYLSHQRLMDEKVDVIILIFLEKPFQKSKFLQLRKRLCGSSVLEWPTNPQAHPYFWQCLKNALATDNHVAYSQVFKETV
How it was run: (§1)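 HEK293, transient transfection 48 h (CMV-TLR7/8 WT or 2nd-LRR deletion + NFκB-luc); compound 6 h, 37 °C, 5% CO2; Steady Lite luciferase; quadruplicate dose-response; LEC = conc. ≥2× above assay SD.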

[2] = tested on: human TLR8 mutant sequence comprising a deletion in the second leucine-rich repeat; assay: TLR8 cellular NFκB-luc reporter assay, mutant TLR8 with deletion in the second leucine-rich repeat; assay type: cell-based; design: unit not given here; settings: lowest effective concentration
Procedure: (§2) The ability of compounds to activate human TLR7 and/or TLR8 was assessed in a cellular reporter assay using HEK293 cells transiently transfected with a TLR7 or TLR8 expression vector and NFκB-luc reporter construct. In one instance the TLR expression construct expresses the respective wild type sequence or a mutant sequence comprising a deletion in the second leucine-rich repeat of the TLR.
(§3) Briefly, HEK293 cells were grown in culture medium (DMEM supplemented with 10% FCS and 2 mM Glutamine). For transfection of cells in 10 cm dishes, cells were detached with Trypsin-EDTA, transfected with a mix of CMV-TLR7 or TLR8 plasmid (750 ng), NFκB-luc plasmid (375 ng) and a transfection reagent and incubated for 48 hours at 37° C. in a humidified 5% CO2 atmosphere. […] Thirty microliters of cells were then dispensed into each well in 384-well plates, where 10 μL of compound in 4% DMSO was already present. Following 6 hours incubation at 37° C., 5% CO2, the luciferase activity was determined by adding 15 μl of Steady Lite Plus substrate (Perkin Elmer) to each well and readout performed on a ViewLux ultraHTS microplate imager (Perkin Elmer). Dose response curves were generated from measurements performed in quadruplicates.

[3] = tested on: human TLR7 mutant sequence comprising a deletion in the second leucine-rich repeat; assay: TLR7 cellular NFκB-luc reporter assay, mutant TLR7 with deletion in the second leucine-rich repeat; assay type: cell-based; design: unit not given here; settings: lowest effective concentration
Procedure: as §2, §3

[4] = target: T2, human TLR8 (wild type sequence) (Homo sapiens, UniProt Q9NR97); assay: TLR8 cellular NFκB-luc reporter assay, wild type TLR8; assay type: cell-based; design: unit not given here; settings: lowest effective concentration; for TLR 8 wt LEC: wild type TLR8 (compounds 74 onward)
T2 construct: expressed in transfected cells; host or cells: HEK293
T2 sequence (Q9NR97 27-1041): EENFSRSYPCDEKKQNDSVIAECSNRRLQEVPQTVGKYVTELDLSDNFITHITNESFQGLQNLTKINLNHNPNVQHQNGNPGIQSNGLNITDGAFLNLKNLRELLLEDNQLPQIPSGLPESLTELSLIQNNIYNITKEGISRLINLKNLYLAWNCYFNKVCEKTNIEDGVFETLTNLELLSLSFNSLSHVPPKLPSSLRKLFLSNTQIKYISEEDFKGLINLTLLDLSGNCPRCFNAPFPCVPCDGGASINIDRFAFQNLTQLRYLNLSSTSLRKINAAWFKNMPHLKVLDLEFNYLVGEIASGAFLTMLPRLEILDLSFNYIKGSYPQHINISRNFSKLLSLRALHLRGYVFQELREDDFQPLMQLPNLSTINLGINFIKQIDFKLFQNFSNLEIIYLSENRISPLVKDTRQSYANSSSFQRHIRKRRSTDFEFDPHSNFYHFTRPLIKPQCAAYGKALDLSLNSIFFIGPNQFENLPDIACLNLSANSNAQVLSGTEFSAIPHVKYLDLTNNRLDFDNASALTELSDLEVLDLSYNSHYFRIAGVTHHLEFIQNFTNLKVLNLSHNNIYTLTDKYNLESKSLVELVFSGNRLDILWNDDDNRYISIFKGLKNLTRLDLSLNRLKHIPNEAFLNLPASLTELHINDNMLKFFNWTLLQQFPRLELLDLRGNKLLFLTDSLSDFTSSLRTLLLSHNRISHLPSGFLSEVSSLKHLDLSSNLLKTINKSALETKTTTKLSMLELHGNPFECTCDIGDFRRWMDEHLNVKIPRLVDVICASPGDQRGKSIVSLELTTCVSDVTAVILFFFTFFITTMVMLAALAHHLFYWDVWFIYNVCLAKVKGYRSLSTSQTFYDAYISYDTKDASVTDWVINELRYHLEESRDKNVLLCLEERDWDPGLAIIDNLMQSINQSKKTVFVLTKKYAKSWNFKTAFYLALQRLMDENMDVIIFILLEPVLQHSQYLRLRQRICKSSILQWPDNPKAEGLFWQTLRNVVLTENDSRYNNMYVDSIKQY
How it was run: as §1

[5] = tested on: HCV replicon in Huh-7 luc/neo cells; assay: Suppression of HCV replicon replication by conditioned media from compound-treated PBMC; assay type: cell-based, HCV type 1 b; settings: Hepatitis C virus; conditioned media from compound-treated PBMC on Huh-7 luc/neo replicon cells (compounds 74 onward); read-out: PBMC HUH-7 EC50
How it was run: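 Human PBMC (≥2 donors, RPMI + 10% human AB serum, 2×10^5 cells/well) incubated overnight with compounds; supernatant transferred onto Huh-7 luc/neo HCV 1b replicon cells. After 24 h, replication read as luciferase activity. Recombinant interferon α-2a served as standard.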

| SMILES | TLR7-wt_LEC [1] | TLR8-dIRR2_LEC [2] | TLR7-dIRR2_LEC [3] | TLR8-wt_LEC [4] | TLR 8 wt LEC [4] | EC50 [5] [µM] | TLR 7 wt LEC [1] |
| --- | --- | --- | --- | --- | --- | --- | --- |
| CCCCNc1nc(N)ncc1OCc1ccc2cccnc2n1 [Compound 236] | 0.241 | 0.031 | 0.333 |  |  |  |  |
| CCC[C@@H](CCO)Nc1nc(N)ncc1OCc1cn2ccccc2n1 [Compound 205] | 0.369 |  | 1.110 | 0.047 |  |  |  |
| CCCC[C@@H](CCO)Nc1nc(N)ncc1OCc1nccc2ccccc12 [Compound 208] | 0.001 |  | 0.093 |  |  |  |  |
| CCCCNc1nc(N)ncc1OCc1cn2ccncc2n1 [Compound 211] | 0.208 |  | 1.040 | 0.097 |  |  |  |
| CCC[C@@H](CO)Nc1nc(N)ncc1OCCCc1ccc(OC)cc1 [Compound 200] | 0.253 |  | 0.181 | 0.200 |  |  |  |
| CCCC[C@@H](CCO)Nc1nc(N)ncc1OCc1cn2ccccc2n1 [Compound 207] | 0.177 |  | 1.450 | 0.063 |  |  |  |
| CCC[C@@H](CO)Nc1nc(N)ncc1OCc1cccc(C)n1 [Compound 202] | 0.164 |  | 0.089 | 0.049 |  |  |  |
| CCC[C@@H](CO)Nc1nc(N)ncc1OCCCc1ccc2c(c1)OCO2 [Compound 204] | 0.791 |  | 0.791 | 0.493 |  |  |  |
| CCCC[C@@H](CO)Nc1nc(N)ncc1OCCOC [Compound 197] | 2.650 |  | 0.624 | 0.767 |  |  |  |
| C=CC[C@H](CCCC)Nc1nc(N)ncc1OC [Compound 292] | 0.913 |  | 3.082 |  |  |  |  |
| CCC[C@H](C)Nc1nc(N)ncc1OCc1nccc2ccccc12 [Compound 212] | 0.007 |  | 0.148 | 0.005 |  |  |  |
| CCCC[C@@H](CO)Nc1nc(N)ncc1OCCCc1ccc(OC)cc1 [Compound 201] | 0.566 |  | 0.647 | 0.758 |  |  |  |
| CCCCNc1nc(N)ncc1OCC1(C)COC1 [Compound 206] | >25 |  | 9.450 | >23.81 |  |  |  |
| CCCCNc1nc(N)ncc1OCc1cn2ccccc2n1 [Compound 209] | 0.074 |  | 0.667 | 0.076 |  |  |  |
| CCCC[C@@H](CO)Nc1nc(N)ncc1OCc1ccc2ccccc2n1 [Compound 198] | 0.076 |  | 0.511 | 0.089 |  |  |  |
| CCCCNc1nc(N)ncc1OCc1ccc(C#N)cc1 [Compound 210] | 0.686 |  | 0.896 | 0.237 |  |  |  |

| SMILES | TLR7-wt_LEC [1] | TLR8-dIRR2_LEC [2] | TLR7-dIRR2_LEC [3] | TLR8-wt_LEC [4] | TLR 8 wt LEC [4] | EC50 [5] [µM] | TLR 7 wt LEC [1] |
| --- | --- | --- | --- | --- | --- | --- | --- |
| CCCCNc1nc(N)ncc1OCC(C)(C)O [Compound 105] |  |  |  |  | 22.020 | 19.1 | >25 |
| CCCCNc1nc(N)ncc1OCc1cccc(C(=O)c2ccccc2)c1 [Compound 103] |  |  |  |  | 1.270 | 0.725 | 1.190 |
| CCCCNc1nc(N)ncc1OCc1cc(-c2ccco2)on1 [Compound 116] |  |  |  |  | 1.610 | 0.066 | 0.652 |
| COc1cnc(N)nc1NCCCCF [Compound 97] |  |  |  |  | 5.070 | 2.64 | 21.810 |
| CCCCNc1nc(N)ncc1OCc1ccccn1 [Compound 101] |  |  |  |  | 0.597 | 0.055 | 0.277 |
| CCCC[C@@H](CCO)Nc1nc(N)ncc1OCc1ncc(C)c(OC)c1C [Compound 75] |  |  |  |  | 0.218 | 0.007 | 0.023 |
| CCCCNc1nc(N)ncc1OCCOc1ccc(C(=O)OC)c(OC)c1 [Compound 134] |  |  |  |  | 2.110 | 0.935 | 2.010 |
| CCCC[C@H](CCO)Nc1nc(N)ncc1OCc1ccccc1 [Compound 145] |  |  |  |  | 1.920 | 0.632 | 2.140 |
| CCCC[C@@H](CO)Nc1nc(N)ncc1OCc1cccc(C)n1 [Compound 203] | 0.124 |  | 0.160 | 0.054 |  |  |  |
| CCC[C@@H](CO)Nc1nc(N)ncc1OCCOC [Compound 196] | 1.900 |  | 0.469 | 0.687 |  |  |  |
| CCCC(C)Nc1nc(N)ncc1OCCCc1ccccc1 (stereo not shown) [Compound 112] |  |  |  |  | 5.560 | 3.35 | 3.960 |
| CCCCNc1nc(N)ncc1OCc1nn(C)c(C)c1N [Compound 85] |  |  |  |  | 2.960 | 0.209 | 0.509 |
| CCCCNc1nc(N)ncc1OCCCc1ccc(Cl)cc1 [Compound 109] |  |  |  |  | 2.230 | 0.393 | 0.790 |
| CCCCNc1nc(N)ncc1OCc1cc(OCC2CC2)c(OC)cn1 [Compound 175] |  |  |  |  | 2.480 | 0.167 | 0.367 |
| CCC[C@@H](CCO)Nc1nc(N)ncc1OCCCc1ccccc1 [Compound 165] |  |  |  |  | 1.800 | 0.187 | 0.683 |
| CCCCNc1nc(N)ncc1O[C@H](C)c1ccccc1 [Compound 98] |  |  |  |  | 10.100 | 22 | >25 |
